Test results from ChEMBL document CHEMBL1201862, “PubChem BioAssay data set” (2004).
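Five concentrations, 48 hours, 96-well plates. GI50 = concentration required for 50% inhibition of growth.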 Active and inactive are the calls of the source. No stated cut-off is given here; in the data, active = GI50 up to about 1.1 µM and inactive = higher.

Columns and labels:
Assay in all cases: NCI anticancer screen, dose series, 48 h
MDA-N = test system: MDA-N
MDA-MB-231 = test system: MDA-MB-231
PC-3 = test system: PC-3
NCI-H226 = test system: NCI-H226
Hs-578T = test system: Hs-578T
NCI-H522 = test system: NCI-H522
SF-295 = test system: SF-295
RPMI-8226 = test system: RPMI-8226
T47D = test system: T47D
IGROV-1 = test system: IGROV-1
HT-29 = test system: HT-29
SNB-75 = test system: SNB-75
HCC 2998 = test system: HCC 2998
LOX IMVI = test system: LOX IMVI
786-0 = test system: 786-0
DU-145 = test system: DU-145
SF-268 = test system: SF-268

Compound | GI50 (MDA-N) | GI50 (MDA-MB-231) | GI50 (PC-3) | GI50 (NCI-H226) | GI50 (Hs-578T) | GI50 (NCI-H522) | GI50 (SF-295) | GI50 (RPMI-8226) | GI50 (T47D) | GI50 (IGROV-1) | GI50 (HT-29) | GI50 (SNB-75) | GI50 (HCC 2998) | GI50 (LOX IMVI) | GI50 (786-0) | GI50 (DU-145) | GI50 (SF-268)
c1csc(C(NC2=NCCO2)C2CC2)c1 (stereo not drawn) | > 100 µM (inactive) | > 100 µM (inactive) | > 100 µM (inactive) | > 100 µM (inactive) | > 100 µM (inactive) | > 100 µM (inactive) | > 100 µM (inactive) | > 100 µM (inactive) | > 100 µM (inactive) | > 100 µM (inactive) | 83.9 µM (inactive) | > 100 µM (inactive) | > 100 µM (inactive) | > 100 µM (inactive) |  |  | 
CC(=O)c1c(-c2cccc3ccccc23)c(C#N)c(=S)n(C2OC(CO)C(O)C(O)C2O)c1C (stereo not drawn) | 50.1 µM (inactive) |  | > 100 µM (inactive) | > 100 µM (inactive) | > 100 µM (inactive) | > 100 µM (inactive) | > 100 µM (inactive) | 53.2 µM (inactive) |  | > 100 µM (inactive) | > 100 µM (inactive) | > 100 µM (inactive) | > 100 µM (inactive) | > 100 µM (inactive) | > 100 µM (inactive) | > 100 µM (inactive) | > 100 µM (inactive)
c1cc2nnnn2nc1N1CCCC1 | > 100 µM (inactive) | > 100 µM (inactive) | > 100 µM (inactive) | > 100 µM (inactive) |  |  | > 100 µM (inactive) | > 100 µM (inactive) |  |  | > 100 µM (inactive) |  | > 100 µM (inactive) | > 100 µM (inactive) | > 100 µM (inactive) | > 100 µM (inactive) | > 100 µM (inactive)
CCOc1cc(NC(C)=O)ccc1C(=O)NN1C(=O)/C(=C/c2cc(OC)c(OC)c(OC)c2)N=C1c1ccccc1 | > 100 µM (inactive) |  |  | > 100 µM (inactive) | > 100 µM (inactive) | 28.3 µM (inactive) | > 100 µM (inactive) |  |  | > 100 µM (inactive) | > 100 µM (inactive) |  | > 100 µM (inactive) | > 100 µM (inactive) | > 100 µM (inactive) |  | 86.9 µM (inactive)
CCN(CC)C(=S)SS(=O)(=O)c1cccc(N)c1 | > 100 µM (inactive) | > 100 µM (inactive) |  | > 100 µM (inactive) | > 100 µM (inactive) | > 100 µM (inactive) | > 100 µM (inactive) | > 100 µM (inactive) | > 100 µM (inactive) |  | > 100 µM (inactive) |  | > 100 µM (inactive) | > 100 µM (inactive) | > 100 µM (inactive) | > 100 µM (inactive) | > 100 µM (inactive)
Cc1ccc2nc(SCC(=O)N/N=C3\C(=O)Nc4ccccc43)n(-c3ccccc3)c(=O)c2c1 | 19 µM (inactive) | 10.9 µM (inactive) | 17.1 µM (inactive) | 16.2 µM (inactive) | 17.8 µM (inactive) |  | 15.8 µM (inactive) | 17.6 µM (inactive) | 15.5 µM (inactive) |  | 19.4 µM (inactive) |  | 14.8 µM (inactive) | 15.6 µM (inactive) | 16 µM (inactive) | 13.4 µM (inactive) | 13.7 µM (inactive)
N[C@@H]1C[C@H](N)c2c(Cl)sc(Cl)c21 | > 100 µM (inactive) | > 100 µM (inactive) | > 100 µM (inactive) | > 100 µM (inactive) |  |  | > 100 µM (inactive) | > 100 µM (inactive) | > 100 µM (inactive) | > 100 µM (inactive) |  | > 100 µM (inactive) | > 100 µM (inactive) | > 100 µM (inactive) | > 100 µM (inactive) | > 100 µM (inactive) | 
COc1cccc(/C=N/NC(=O)CN(C)C)c1O | > 100 µM (inactive) |  | > 100 µM (inactive) | 72.8 µM (inactive) | > 100 µM (inactive) | > 100 µM (inactive) | > 100 µM (inactive) |  | > 100 µM (inactive) | > 100 µM (inactive) | > 100 µM (inactive) | < 0.01 µM (active) | > 100 µM (inactive) | > 100 µM (inactive) | > 100 µM (inactive) | > 100 µM (inactive) | > 100 µM (inactive)
COC(=O)CC1CN(C(=O)OCc2ccccc2)C(C)(C)O1 (stereo not drawn) | > 100 µM (inactive) | > 100 µM (inactive) | 62.7 µM (inactive) | 2 µM (inactive) |  | 5.46 µM (inactive) | > 100 µM (inactive) | 81.3 µM (inactive) |  | 82.2 µM (inactive) |  | 3.3 µM (inactive) | > 100 µM (inactive) | > 100 µM (inactive) | > 100 µM (inactive) | > 100 µM (inactive) | 
COc1cc2c3c(c4cc(OC)c(OC)cc4c2cc1OC)C(=O)C1CCC(=O)N1C3 (stereo not drawn) |  | 55.5 µM (inactive) | 25.6 µM (inactive) |  | 3.3 µM (inactive) | 3.1 µM (inactive) | 21.6 µM (inactive) | 2.02 µM (inactive) | 8.71 µM (inactive) | 2.43 µM (inactive) |  | 11.6 µM (inactive) | 21.7 µM (inactive) | 24.9 µM (inactive) |  | 11.5 µM (inactive) | 22.2 µM (inactive)
O=c1[nH]c2ccsc2c(=O)n1COCc1ccccc1 | > 100 µM (inactive) | > 100 µM (inactive) | > 100 µM (inactive) | > 100 µM (inactive) | > 100 µM (inactive) | > 100 µM (inactive) | > 100 µM (inactive) | > 100 µM (inactive) |  | > 100 µM (inactive) | > 100 µM (inactive) | > 100 µM (inactive) | > 100 µM (inactive) | > 100 µM (inactive) | > 100 µM (inactive) | > 100 µM (inactive) | > 100 µM (inactive)
CNC(=O)OC(COC)CN1CCN(c2ccccc2C)CC1 (stereo not drawn) |  | > 10 µM (inactive) | > 10 µM (inactive) | > 10 µM (inactive) | > 10 µM (inactive) | > 10 µM (inactive) | > 10 µM (inactive) | > 10 µM (inactive) | > 10 µM (inactive) | > 10 µM (inactive) | > 10 µM (inactive) | > 10 µM (inactive) | > 10 µM (inactive) | > 10 µM (inactive) | > 10 µM (inactive) | > 10 µM (inactive) | > 10 µM (inactive)
N#Cc1ccccc1NC(=O)C(=O)c1c(O)c2ccccc2oc1=O | > 100 µM (inactive) | > 100 µM (inactive) | > 100 µM (inactive) | > 100 µM (inactive) | > 100 µM (inactive) | > 100 µM (inactive) | > 100 µM (inactive) | > 100 µM (inactive) | > 100 µM (inactive) | > 100 µM (inactive) | > 100 µM (inactive) | > 100 µM (inactive) | > 100 µM (inactive) | > 100 µM (inactive) | > 100 µM (inactive) |  | > 100 µM (inactive)
ClCCCN(CCCCl)c1ccc(/C=N/c2cccc(Cl)c2)cc1 |  | 12.2 µM (inactive) | 10.7 µM (inactive) | 2.03 µM (inactive) | 16.1 µM (inactive) | 30.5 µM (inactive) | 15 µM (inactive) | 17.2 µM (inactive) | 7.11 µM (inactive) | 29.8 µM (inactive) | 23.6 µM (inactive) | 8.93 µM (inactive) | 32.1 µM (inactive) | 7.57 µM (inactive) | 18.3 µM (inactive) | 2.56 µM (inactive) | 21.7 µM (inactive)
CN(C)CCNC(=O)c1cccc2c(NCC(=O)O)c3ccccc3nc12 | 14 µM (inactive) | 14.7 µM (inactive) | 10.5 µM (inactive) | 4.82 µM (inactive) | 18.5 µM (inactive) | 10.6 µM (inactive) | 10.9 µM (inactive) | 16.5 µM (inactive) |  | 8.51 µM (inactive) | 3.07 µM (inactive) | 17.6 µM (inactive) |  | 4.97 µM (inactive) | 6.87 µM (inactive) | 25.3 µM (inactive) | 11.5 µM (inactive)
CC(C)C[P+](c1ccccc1)(c1ccccc1)c1ccccc1 |  | 31.8 µM (inactive) |  | 8.79 µM (inactive) | 11.2 µM (inactive) | 3.97 µM (inactive) | 13.2 µM (inactive) | < 0.01 µM (active) | 11.8 µM (inactive) | 13.3 µM (inactive) | 3.64 µM (inactive) | 13.1 µM (inactive) | 8.57 µM (inactive) | 11.3 µM (inactive) | 41.5 µM (inactive) | 6.95 µM (inactive) | 10.3 µM (inactive)
CC1=CC(=O)/C(=C/NC(=S)c2ccncc2)C(=O)O1 | > 100 µM (inactive) | > 100 µM (inactive) | > 100 µM (inactive) | 68.1 µM (inactive) | > 100 µM (inactive) | > 100 µM (inactive) | > 100 µM (inactive) |  |  | 38.7 µM (inactive) | > 100 µM (inactive) | 61.9 µM (inactive) | > 100 µM (inactive) | > 100 µM (inactive) | > 100 µM (inactive) | > 100 µM (inactive) | > 100 µM (inactive)
CCOC(=O)Cc1csc2[n+]1C(=O)/C(=C/c1cccc(OC)c1O)S2 | 40.1 µM (inactive) | 51.5 µM (inactive) | 40.8 µM (inactive) | > 100 µM (inactive) |  |  | 73.5 µM (inactive) |  | 36.3 µM (inactive) | 45.4 µM (inactive) | 39 µM (inactive) | 18.7 µM (inactive) | 32.2 µM (inactive) | 51.8 µM (inactive) | 68.7 µM (inactive) | 73.3 µM (inactive) | 
Oc1ccc(-c2nc3ccc(Br)cc3s2)cc1 | 25.6 µM (inactive) | 16.3 µM (inactive) | 19.2 µM (inactive) | 16.3 µM (inactive) |  | 10.7 µM (inactive) | 17.6 µM (inactive) | 15.1 µM (inactive) |  | 12.9 µM (inactive) | 18.2 µM (inactive) |  |  | 15.5 µM (inactive) |  | 16.9 µM (inactive) | 16.3 µM (inactive)
